According to PubChem BioAssay (NCI):
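Test compounds were applied to cells in 96-well plates for 48 hours at 5 doses. TGI: total growth inhibition.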

What was measured:
Test in all cases: NCI anticancer screen, dose series, 48 h
[1] = system: PC-3 prostate
[2] = system: IGROV1 ovarian
[3] = system: MDA-MB-435
[4] = system: SK-MEL-2 melanoma
[5] = system: HCC-2998 colon
[6] = system: A549 NSCLC
[7] = system: EKVX NSCLC
[8] = system: HCT-15 colon
[9] = system: BT-549 breast
[10] = system: COLO 205 colon
[11] = system: M14 melanoma
[12] = system: KM12 colon
[13] = system: SNB-19 CNS
[14] = system: UACC-257 melanoma
[15] = system: HS 578T breast
[16] = system: NCI-H522 lung
[17] = system: SK-OV-3 ovarian
[18] = system: OVCAR-8 ovarian
[19] = system: HT29 colon
[20] = system: OVCAR-5 ovarian
[21] = system: SF-539 CNS
[22] = system: MALME-3M melanoma
[23] = system: OVCAR-3 ovarian
[24] = system: SK-MEL-5 melanoma
[25] = system: NCI-H226 lung
[26] = system: MCF7 breast
[27] = system: HOP-62 NSCLC
[28] = system: SW-620 colon
[29] = system: TK-10 renal
[30] = system: SK-MEL-28 melanoma
[31] = system: HL-60(TB) leukemia
[32] = system: HCT-116 colon
[33] = system: 786-0 renal
[34] = system: RPMI-8226 leukemia
[35] = system: SNB-75 CNS
[36] = system: MDA-MB-231 breast
[37] = system: T-47D breast
[38] = system: SF-295 CNS
[39] = system: RXF 393 renal
[40] = system: A498 renal
[41] = system: LOX IMVI melanoma
[42] = system: UO-31 renal
[43] = system: MDA-N
[44] = system: DU-145 prostate
[45] = system: SR leukemia
[46] = system: SF-268 CNS
[47] = system: U251 CNS
[48] = system: NCI/ADR-RES ovarian
[49] = system: HOP-92 NSCLC
[50] = system: UACC-62 melanoma
[51] = system: NCI-H23 lung
[52] = system: OVCAR-4 ovarian
[53] = system: MOLT-4 leukemia
[54] = system: SN12C renal
[55] = system: CAKI-1 renal
[56] = system: NCI-H460 lung
[57] = system: K-562 leukemia
[58] = system: CCRF-CEM leukemia
[59] = system: ACHN renal

With `O=C1c2ccccc2C(=O)c2c1ccc1c2OCO1` the TGI [1] was > 100 µM, the TGI [2] was > 100 µM and the TGI [3] was > 100 µM. The TGI [4] was > 100 µM, the TGI [5] was > 100 µM and the TGI [6] was > 100 µM. The TGI [7] was > 100 µM, the TGI [8] was > 100 µM and the TGI [9] was > 100 µM. The TGI [10] was > 100 µM, the TGI [11] was > 100 µM and the TGI [12] was > 100 µM. For the same molecule, the TGI [13] was > 100 µM, the TGI [14] was > 100 µM and the TGI [15] was > 100 µM. The TGI [16] was > 100 µM, the TGI [17] was > 100 µM and the TGI [18] was > 100 µM. The TGI [19] was > 100 µM, the TGI [20] was > 100 µM and the TGI [21] was > 100 µM. For the same molecule, the TGI [22] was > 100 µM, the TGI [23] was > 100 µM and the TGI [24] was > 100 µM. For the same molecule, the TGI [25] was > 100 µM, the TGI [26] was > 100 µM and the TGI [27] was > 100 µM. For the same molecule, the TGI [28] was > 100 µM, the TGI [29] was > 100 µM and the TGI [30] was > 100 µM. The TGI [31] was > 100 µM, the TGI [32] was > 100 µM and the TGI [33] was > 100 µM. The TGI [34] was > 100 µM, the TGI [35] was > 100 µM and the TGI [36] was > 100 µM. The TGI [37] was > 100 µM, the TGI [38] was > 100 µM and the TGI [39] was > 100 µM. For the same molecule, the TGI [40] was > 100 µM, the TGI [41] was > 100 µM and the TGI [42] was > 100 µM. For the same molecule, the TGI [43] was > 100 µM, the TGI [44] was > 100 µM and the TGI [45] was > 100 µM. For the same molecule, the TGI [46] was > 100 µM, the TGI [47] was > 100 µM and the TGI [48] was > 100 µM. For the same molecule, the TGI [49] was > 100 µM, the TGI [50] was > 100 µM and the TGI [51] was > 100 µM. For the same molecule, the TGI [52] was > 100 µM, the TGI [53] was > 100 µM and the TGI [54] was > 100 µM. The TGI [55] was > 100 µM.
`O=C(N/C(=C\c1ccccc1)C1Nc2ccccc2C(=O)O1)c1ccccc1` (configuration not stated) was tested, and the TGI [1] was > 100 µM, the TGI [2] was > 100 µM and the TGI [3] was > 100 µM. For the same molecule, the TGI [4] was 62 µM, the TGI [5] was 38.6 µM and the TGI [6] was > 100 µM. The TGI [7] was > 100 µM, the TGI [8] was > 100 µM and the TGI [9] was 62.2 µM. For the same molecule, the TGI [10] was 80.9 µM, the TGI [11] was 52.1 µM and the TGI [12] was 31.2 µM. For the same molecule, the TGI [56] was 35.5 µM, the TGI [13] was > 100 µM and the TGI [14] was 58.4 µM. For the same molecule, the TGI [15] was 99.7 µM, the TGI [16] was 33.5 µM and the TGI [17] was > 100 µM. The TGI [18] was 51.1 µM, the TGI [19] was > 100 µM and the TGI [57] was 51.9 µM. The TGI [20] was > 100 µM, the TGI [21] was 43.7 µM and the TGI [22] was 45.6 µM. The TGI [23] was 96.7 µM, the TGI [24] was 34.7 µM and the TGI [25] was > 100 µM. For the same molecule, the TGI [26] was > 100 µM, the TGI [27] was 61.6 µM and the TGI [28] was 59.6 µM. For the same molecule, the TGI [29] was > 100 µM, the TGI [58] was 46.5 µM and the TGI [30] was 53.2 µM. For the same molecule, the TGI [59] was > 100 µM, the TGI [31] was 36.1 µM and the TGI [32] was 36.8 µM. For the same molecule, the TGI [33] was 59 µM, the TGI [34] was 63.2 µM and the TGI [35] was > 100 µM. For the same molecule, the TGI [36] was > 100 µM, the TGI [37] was > 100 µM and the TGI [38] was > 100 µM. For the same molecule, the TGI [39] was 63 µM, the TGI [40] was > 100 µM and the TGI [41] was 36.1 µM. For the same molecule, the TGI [42] was 44.2 µM, the TGI [43] was 56.6 µM and the TGI [44] was > 100 µM. The TGI [46] was > 100 µM, the TGI [47] was 51.2 µM and the TGI [48] was 70.9 µM. For the same molecule, the TGI [49] was > 100 µM, the TGI [50] was > 100 µM and the TGI [51] was > 100 µM. For the same molecule, the TGI [52] was > 100 µM, the TGI [53] was 45.1 µM and the TGI [54] was 84.6 µM. The TGI [55] was > 100 µM.
For `COC(=O)C1C2CCCN2OC1(C)CO` (configuration not stated), the TGI [1] was > 100 µM, the TGI [2] was > 100 µM and the TGI [3] was > 100 µM. The TGI [4] was > 100 µM, the TGI [6] was > 100 µM and the TGI [7] was > 100 µM. The TGI [8] was > 100 µM, the TGI [9] was > 100 µM and the TGI [10] was > 100 µM. The TGI [11] was > 100 µM, the TGI [12] was > 100 µM and the TGI [56] was > 100 µM. The TGI [13] was > 100 µM, the TGI [14] was > 100 µM and the TGI [15] was > 100 µM. The TGI [16] was > 100 µM, the TGI [17] was > 100 µM and the TGI [18] was > 100 µM. The TGI [19] was > 100 µM, the TGI [57] was > 100 µM and the TGI [20] was > 100 µM. For the same molecule, the TGI [21] was > 100 µM, the TGI [23] was > 100 µM and the TGI [24] was > 100 µM. The TGI [25] was > 100 µM, the TGI [26] was > 100 µM and the TGI [27] was > 100 µM. For the same molecule, the TGI [28] was > 100 µM, the TGI [29] was > 100 µM and the TGI [58] was > 100 µM. The TGI [30] was > 100 µM, the TGI [59] was > 100 µM and the TGI [31] was > 100 µM. The TGI [32] was > 100 µM, the TGI [33] was > 100 µM and the TGI [34] was > 100 µM. The TGI [35] was > 100 µM, the TGI [36] was > 100 µM and the TGI [37] was > 100 µM. The TGI [38] was > 100 µM, the TGI [40] was > 100 µM and the TGI [41] was > 100 µM. For the same molecule, the TGI [42] was > 100 µM, the TGI [43] was > 100 µM and the TGI [44] was > 100 µM. The TGI [45] was > 100 µM, the TGI [46] was > 100 µM and the TGI [47] was > 100 µM. The TGI [48] was > 100 µM, the TGI [50] was > 100 µM and the TGI [51] was > 100 µM. For the same molecule, the TGI [52] was > 100 µM, the TGI [53] was > 100 µM and the TGI [54] was > 100 µM. For the same molecule, the TGI [55] was > 100 µM.
In the case of `CCOC(=O)c1cc(-c2ccc(Cl)cc2)c([N+](=O)[O-])n1C`, the TGI [2] is reported as > 10 µM, the TGI [3] is reported as > 10 µM and the TGI [4] is reported as > 10 µM. For the same molecule, the TGI [5] was > 10 µM, the TGI [6] was > 10 µM and the TGI [7] was > 10 µM. The TGI [8] was > 10 µM, the TGI [9] was > 10 µM and the TGI [11] was > 10 µM. The TGI [12] was > 10 µM, the TGI [56] was > 10 µM and the TGI [13] was > 10 µM. The TGI [14] was > 10 µM, the TGI [15] was > 10 µM and the TGI [16] was > 10 µM. For the same molecule, the TGI [17] was > 10 µM, the TGI [18] was > 10 µM and the TGI [19] was > 10 µM. For the same molecule, the TGI [57] was > 10 µM, the TGI [20] was > 10 µM and the TGI [21] was > 10 µM. The TGI [22] was > 10 µM, the TGI [23] was > 10 µM and the TGI [25] was > 10 µM. The TGI [29] was > 10 µM, the TGI [58] was > 10 µM and the TGI [59] was > 10 µM. For the same molecule, the TGI [31] was > 10 µM, the TGI [32] was > 10 µM and the TGI [33] was > 10 µM. For the same molecule, the TGI [36] was 5.8 µM, the TGI [37] was 6.45 µM and the TGI [38] was > 10 µM. For the same molecule, the TGI [42] was > 10 µM, the TGI [43] was > 10 µM and the TGI [44] was > 10 µM. For the same molecule, the TGI [45] was > 10 µM, the TGI [46] was > 10 µM and the TGI [47] was > 10 µM. For the same molecule, the TGI [49] was > 10 µM, the TGI [51] was > 10 µM and the TGI [52] was > 10 µM. The TGI [53] was > 10 µM and the TGI [54] was > 10 µM.
